The test system of this test is L1210 leukemia ip in BDF1 mice, survival T/C. Put plainly: NCI In Vivo Anticancer Drug Screen. Data for tumor model L1210 Leukemia (intraperitoneal) in B6D2F1 (BDF1) mice. The conditions noted are these: endpoint: mean survival time, higher = longer survival. Put shortly: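 Tumor was transplanted into mice, which were then dosed with test compound or vehicle alone. Survival was recorded for each group, and the treated figure was expressed relative to the control figure.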

Where [1] appears, read: dose: 50.0 mg/kg/injection, schedule: Q01DX001 (ip), vehicle: carboxymethylcellulose (CMC).
The mark [2] stands for this setting: dose: 100.0 mg/kg/injection, schedule: Q01DX001 (ip), vehicle: carboxymethylcellulose (CMC).
[3] abbreviates: dose: 200.0 mg/kg/injection, schedule: Q01DX001 (ip), vehicle: carboxymethylcellulose (CMC).
The mark [4] stands for this setting: dose: 400.0 mg/kg/injection, schedule: Q01DX001 (ip), vehicle: carboxymethylcellulose (CMC).
The mark [5] stands for this setting: dose: 400.0 mg/kg/injection, schedule: Q01DX001 (ip), vehicle: saline.
Where [6] appears, read: dose: 100.0 mg/kg/injection, schedule: Q01DX001 (ip), vehicle: saline.
Setting [7] is: dose: 200.0 mg/kg/injection, schedule: Q01DX001 (ip), vehicle: saline.
Where [8] appears, read: dose: 100.0 mg/kg/injection, schedule: Q04DX003 (ip), vehicle: saline with Tween-80.
The mark [9] stands for this setting: dose: 200.0 mg/kg/injection, schedule: Q04DX003 (ip), vehicle: saline with Tween-80.
The mark [10] stands for this setting: dose: 400.0 mg/kg/injection, schedule: Q04DX003 (ip), vehicle: saline with Tween-80.
Where [11] appears, read: dose: 100.0 mg/kg/injection, schedule: Q04DX002 (ip), vehicle: Klucel (hydroxypropylcellulose) (HPC).
The mark [12] stands for this setting: dose: 100.0 mg/kg/injection, schedule: Q01DX009 (ip), vehicle: Klucel (hydroxypropylcellulose) (HPC).
Where [13] appears, read: dose: 100.0 mg/kg/injection, schedule: Q04DX003 (ip), vehicle: Klucel (hydroxypropylcellulose) (HPC).
[14] abbreviates: dose: 200.0 mg/kg/injection, schedule: Q01DX009 (ip), vehicle: Klucel (hydroxypropylcellulose) (HPC).
Where [15] appears, read: dose: 200.0 mg/kg/injection, schedule: Q04DX003 (ip), vehicle: Klucel (hydroxypropylcellulose) (HPC).
The mark [16] stands for this setting: dose: 100.0 mg/kg/injection, schedule: Q04DX002 (ip), vehicle: saline.
[17] abbreviates: dose: 200.0 mg/kg/injection, schedule: Q04DX002 (ip), vehicle: saline.

Values joined by “and” are separate entries in the source; they are usually repeats but may differ in a detail not shown here. Equal values may be shown once. Inconclusive results and toxic doses are left out.

For the molecule `C/C=C/c1nc2c(c(=O)n(C)c(=O)n2C)n1C`, the T/C is, setting by setting: under setting [1], 106 % of control; under setting [2], 95 % of control; under setting [3], 103 % of control; under setting [4], 97 % of control.
With `CCOC(=O)C(C#N)C(C)CC#N` (stereo unspecified), the T/C is 119 % of control (dose: 100.0 mg/kg/injection, schedule: Q01DX009 (ip), vehicle: saline with Tween-80); 117 % of control (dose: 200.0 mg/kg/injection, schedule: Q01DX009 (ip), vehicle: saline with Tween-80); 108 % of control (dose: 400.0 mg/kg/injection, schedule: Q01DX009 (ip), vehicle: saline with Tween-80).
In the case of `FC(F)(F)c1cc(CN(CCCl)CCCl)cc(C(F)(F)F)c1`, the T/C (dose: 2.4 mg/kg/injection, schedule: Q01DX009 (ip), vehicle: saline) was 97 % of control; the T/C (dose: 3.6 mg/kg/injection, schedule: Q01DX009 (ip), vehicle: saline) was 98 % of control; the T/C (dose: 8.2 mg/kg/injection, schedule: Q01DX009 (ip), vehicle: saline) was 108 % of control; the T/C (dose: 42.0 mg/kg/injection, schedule: Q01DX009 (ip), vehicle: other) was 97 % of control; the T/C (dose: 42.0 mg/kg/injection, schedule: Q01DX015 (ip), vehicle: carboxymethylcellulose (CMC)) is 104 % of control; the T/C under setting [1] was 111 % of control. For the same molecule, the T/C by setting is: (dose: 72.0 mg/kg/injection, schedule: Q01DX009 (ip), vehicle: other) 98 % of control; (dose: 72.0 mg/kg/injection, schedule: Q01DX015 (ip), vehicle: carboxymethylcellulose (CMC)) 116 % of control; under setting [2], 108 % of control; (dose: 120.0 mg/kg/injection, schedule: Q01DX015 (ip), vehicle: carboxymethylcellulose (CMC)) 116 % of control; (dose: 176.0 mg/kg/injection, schedule: Q01DX001 (ip), vehicle: other) 100 % of control; (dose: 178.0 mg/kg/injection, schedule: Q01DX001 (ip), vehicle: saline) 103 % of control. Moreover, the T/C is 86 % of control (dose: 178.0 mg/kg/injection, schedule: Q04DX003 (ip), vehicle: other); 111 % of control under setting [3]; 107 % of control (dose: 264.0 mg/kg/injection, schedule: Q01DX001 (ip), vehicle: other); 116 % of control (dose: 267.0 mg/kg/injection, schedule: Q01DX001 (ip), vehicle: saline); 105 % of control (dose: 400.0 mg/kg/injection, schedule: Q01DX001 (ip), vehicle: other); 121 % of control under setting [5]. Moreover, the T/C (dose: 600.0 mg/kg/injection, schedule: Q01DX001 (ip), vehicle: saline) was 152 % of control.
Consider `Cn1c(N)c(N=CC2CCCCC2)c(=O)n(C)c1=O`, for which the T/C is 100 % of control under setting [6], 100 % of control under setting [7] and 102 % of control under setting [5].
Turning to `On1nnc2ccc(Cl)cc21`, the T/C under setting [8] is 95 % of control, the T/C under setting [9] is 95 % of control and the T/C under setting [10] was 102 % of control.
With `O=[N+]([O-])c1ccc(C[Se]c2ncnc3c2ccn3C2OC(CO)C(O)C2O)cc1` (stereo unspecified), the T/C runs as follows: (dose: 6.25 mg/kg/injection, schedule: Q01DX009 (ip), vehicle: saline) 95 % of control; (dose: 12.5 mg/kg/injection, schedule: Q01DX005 (ip), vehicle: saline) 102 % of control; (dose: 12.5 mg/kg/injection, schedule: Q01DX009 (ip), vehicle: saline) 91 % of control; (dose: 25.0 mg/kg/injection, schedule: Q01DX005 (ip), vehicle: saline) 105 % of control; (dose: 25.0 mg/kg/injection, schedule: Q01DX009 (ip), vehicle: saline) 102 % of control.
For the molecule `NCC1CCCC1N` (stereo unspecified), the T/C (dose: 18.8 mg/kg/injection, schedule: Q01DX009 (ip), vehicle: saline) is 102 % of control; the T/C (dose: 37.5 mg/kg/injection, schedule: Q01DX009 (ip), vehicle: saline) was 102 % of control; the T/C (dose: 75.0 mg/kg/injection, schedule: Q01DX009 (ip), vehicle: saline) is 97 % of control.
With `CCC(C)(C)NC1=C(Cl)C(=O)c2ccccc2C1=O`, the T/C runs as follows: (dose: 6.25 mg/kg/injection, schedule: Q01DX001 (ip), vehicle: saline with Tween-80) 95 % of control; (dose: 12.5 mg/kg/injection, schedule: Q01DX001 (ip), vehicle: saline with Tween-80) 106 % of control.
Regarding `CCOC(=O)CNc1cc(N)ncn1`, the T/C by setting is: (dose: 50.0 mg/kg/injection, schedule: Q01DX009 (ip), vehicle: saline) 105 % of control; (dose: 100.0 mg/kg/injection, schedule: Q01DX009 (ip), vehicle: saline) 112 % of control.
In the case of `N#CC(NC(=O)c1ccccc1)SCc1ccccc1` (stereo unspecified), the T/C by setting is: (dose: 25.0 mg/kg/injection, schedule: Q04DX002 (ip), vehicle: Klucel (hydroxypropylcellulose) (HPC)) 107 % of control; (dose: 50.0 mg/kg/injection, schedule: Q04DX002 (ip), vehicle: Klucel (hydroxypropylcellulose) (HPC)) 91 % of control; under setting [11], 91 % of control.
Regarding `CCN(CC)C(C)(O)CN` (stereo unspecified), the T/C reads like this: under setting [6], 98 % of control; under setting [7], 103 % of control.
For `CC(=O)Nc1ccc2c([N+](=O)[O-])cccc2c1-c1c(NC(C)=O)ccc2c([N+](=O)[O-])cccc12`, the T/C was 101 % of control under setting [12]; 88 % of control under setting [13]; 105 % of control under setting [14]; 97 % of control under setting [15]; 98 % of control (dose: 400.0 mg/kg/injection, schedule: Q01DX009 (ip), vehicle: Klucel (hydroxypropylcellulose) (HPC)); 92 % of control (dose: 400.0 mg/kg/injection, schedule: Q04DX003 (ip), vehicle: Klucel (hydroxypropylcellulose) (HPC)).
For the molecule `Oc1ccc(N=Cc2ccccc2)cc1`, the T/C is 98 % of control (dose: 100.0 mg/kg/injection, schedule: Q04DX002 (ip), vehicle: gum acacia); 109 % of control (dose: 200.0 mg/kg/injection, schedule: Q04DX002 (ip), vehicle: gum acacia); 106 % of control (dose: 400.0 mg/kg/injection, schedule: Q04DX002 (ip), vehicle: gum acacia).
As for `COc1cc(C(=O)NN(C)C)cc(OC)c1OC`, the T/C is 97 % of control under setting [2], 101 % of control under setting [3] and 101 % of control under setting [4].
With `NCc1c(Cl)cccc1[N+](=O)[O-]`, the T/C (dose: 50.0 mg/kg/injection, schedule: Q01DX009 (ip), vehicle: Klucel (hydroxypropylcellulose) (HPC)) is 96 % of control and 108 % of control; the T/C under setting [12] is 96 % of control and 99 % of control and 101 % of control; the T/C under setting [11] is 105 % of control; the T/C under setting [16] was 102 % of control; the T/C under setting [14] was 94 % of control and 104 % of control and 110 % of control; the T/C (dose: 200.0 mg/kg/injection, schedule: Q04DX002 (ip), vehicle: Klucel (hydroxypropylcellulose) (HPC)) is 100 % of control. For the same molecule, the T/C under setting [17] is 94 % of control.
In the case of `O=[N+]([O-])c1ccc(S(=O)CCl)cc1` (stereo unspecified), the T/C under setting [13] is 98 % of control and the T/C under setting [15] is 105 % of control.
On to `CN(C(=O)N(CCCl)N=O)C1CCCCC1`, for which the T/C (dose: 75.0 mg/kg/injection, schedule: Q01DX001 (ip), vehicle: saline) was 109 % of control and the T/C (dose: 150.0 mg/kg/injection, schedule: Q01DX001 (ip), vehicle: saline) was 93 % of control.
Regarding `COC1OC(CCl)C(O)C(O)C1O` (stereo unspecified), the T/C by setting is: under setting [16], 98 % of control; under setting [8], 93 % of control; under setting [17], 103 % of control; under setting [9], 100 % of control; (dose: 400.0 mg/kg/injection, schedule: Q04DX002 (ip), vehicle: saline) 106 % of control; under setting [10], 89 % of control.
As for `CC(=O)NC(C(=O)O)(C(=O)O)C(C)c1c[nH]c2ccccc12` (stereo unspecified), the T/C reads like this: under setting [8], 95 % of control; under setting [9], 90 % of control; under setting [10], 95 % of control.

These data come from PubChem BioAssay AID248 (DTP/NCI, 2004).
